Laboratory results as given in patent US20240262878A1, “PHOTOACTIVATABLE GASDERMIN PROTEINS” (THE BOARD OF TRUSTEES OF THE UNIVERSITY OF ILLINOIS, priority 2021, published 2024).
Numbering of substitutions follows the chain as printed. Names and notes keep the numbering of the source.

B1: R7E/R10E/R11E: mutant at the well-conserved N-terminal region of GSDMD (protein, UniProt P57764 1-484, looked up, variant R7E R10E R11E)
Gasdermin-D: MGSAFEEVVEEVVQELDHGGEFIPVTSLQSSTGFQPYCLVVRKPSSSWFWKPRYKCVNLSIKDILEPDAAEPDVQRGRSFHFYDAMDGQIQGSVELAAPGQAKIAGGAAVSDSSSTSMNVYSLSVDPNTWQTLLHERHLRQPEHKVLQQLRSRGDNVYVVTEVLQTQKEVEVTRTHKREGSGRFSLPGATCLQGEGQGHLSQKKTVTIPSGSTLAFRVAQLVIDSDLDVLLFPDKKQRTFQPPATGHKRSTSEGAWPQLPSGLSMMRCLHNFLTDGVPAEGAFTEDFQGLRAEVETISKELELLDRELCQLLLEGLEGVLRDQLALRALEEALEQGQSLGPVEPLDGPAGAVLECLVLSSGMLVPELAIPVVYLLGALTMLSETQHKLLAEALESQTLLGPLELVGSLLEQSAPWQERSTMSLPPGLLGNSWGEGAPAWVLLDECGLELGEDTPHVCWEPQAQGRMCALYASLALLSGLSQEPH
B2: R151E/R153E: mutant at another helical region of GSDMD N-terminal domain (protein, UniProt P57764 1-484, looked up, variant R151E R153E)
Gasdermin-D: B1 Gasdermin-D with E7R, E10R, E11R, R151E, R153E
B3: R137E: mutant at another helical region of GSDMD N-terminal domain (protein, UniProt P57764 1-484, looked up, variant R137E)
Gasdermin-D: B1 Gasdermin-D with E7R, E10R, E11R, R137E

Legend:
Format in all cases: cell-based
Hela cells [1] = test: PhoDer activation after pretreatment with PI3K/PLC modulators, calcium flare dynamics
Experimental: (§1) Cell Culture. HeLa and RAW264.7 cells were maintained in Dulbecco's Modified Eagle Medium (DMEM) medium supplemented with 10% fetal bovine serum (FBS) and 1% penicillin and streptomycin. Cells were transfected at 50%-70% confluency using LIPOFECTAMINE® 2000 transfection reagent and incubated for 24 hours before imaging. Cells were never serum-starved. To examine endogenous inflammatory activation, RAW264.7 cells were treated with 100 ng/μL lipopolysaccharide (LPS, Invivogen) at the beginning of each experiment. Pretreatment to bias membrane composition by phosphatidylinositol 4,5-bisphosphate (PIP2) modifying enzymes was performed by incubating Hela cells in Hanks' Balanced Salt Solution (HBSS) buffer with inhibitors at 37° C. for 10 minutes to prior imaging at the following concentrations: for phosphoinositide 3-kinase (PI3K), cells were treated 10 μM wortmannin (Tocris); and for phospholipase C (PLC), cells were treated with 10 μM U73122 (Tocris). Cells were removed from the incubator and allowed to come to thermal equilibrium before being imaged in HBSS buffer at room temperature.
(§2) Fluorescence Imaging, Optogenetic Activation, and Post-Processing. All epifluorescence imaging was performed on a customized Nikon Ti2-E microscope equipped with individual control over excitation (EX) and emission (EM) filters, a fast LED light source (Lumencor) with fluid-cooled EMCCD (Andor), motorized stage, and examined under a 40× or 100× oil immersion objective under live focus tracking. For RFP, excitation (EX) and emission (EM) filter combinations (maxima/bandwidth in nm) are indicated. Cells were imaged at 12-15 second intervals. Emission intensities of individual cells were background-subtracted before normalization to zero time point, when optogenetic activation began. In the optical setup, optogenetic activation of PhoDer was performed using an EX filter at 440/20 nm for 20-30 ms across whole fields of view. This replicated the progression of endogenous activation of GSDMD observed in LPS-stimulated RAW264.7 cells. […] Where applicable, inhibitors were treated at the indicated concentration for 15 minutes prior to imaging.
Fluctuation Analysis and Quantification. To automate the objective isolation and quantitation of calcium flares, a post-processing algorithm was developed based on principles and normalization scheme detailed in work on photochromic stochastic optical fluctuation imaging (pcSOFI) (Dedecker et al. (2012) Proc. Natl. Acad. Sci. USA 109: 10909-10914). Briefly, fluctuation caused by the flares generate high autocorrelation signals in time-averaged series and yield high contrast at locales of the greatest ion flux. To truly reflect the local flux change, it is then normalized to remove dependence on the number of biosensors reporting at the given location using a scheme detailed previously (Mo et al. (2017) Nat. Methods 14 (4): 427-434). Using Matlab, rolling-window mean and rolling-window autocorrelation values were calculated for each pixel over each entire fluorescence time course that contained possible flares. A heuristic approach to window size was taken and a range of window sizes were examined using examples where calcium flares were visually distinct prior to setting the window size for all analyses. All such fluctuation images were then verified manually against intensity time course to ensure bone fide flare detection; particularly strong and non-overlapping flares were chosen and added to calculate kinetic parameters. […]

[2] = system: bone marrow-derived macrophages (BMDM); test: IL-1β cytokine release ELISA; details: short-term LPS stimulation (5 minutes), mouse BMDM
Experimental: Cytokine Release. LPS-stimulated, IL-1β cytokine release from bone-marrow monocyte-derived macrophages ([…] mice) was measured using the QUANTIKINE® ELISA kit (R&D Systems). Cells were seeded in 96-well plates and pre-treated for 10 minutes with medium, 10 μM U73122, or 10 μM wortmannin. LPS (100 ng/μL, Invivogen) was then added to the cells for 5 minutes and the cell-free supernatants were recovered and subjected to the ELISA kit according to the manufacturer's instructions. The concentration of the samples in 96-well plates was measured via absorbance at 450 nm using an Epoch Microplate Spectrophotometer (Biotek Instruments). The OD values in six technical repeats each from a total of three mice (n=18) were converted into the […] levels reported via a power law fit of a serial dilution calibration curve.

Hela cells [3] = test: Optogenetic activation of PhoDer, membrane-targeted jRCaMP1b calcium flare imaging and fluctuation analysis; details: charge-altering mutations
Experimental: Cloning. Cloning and subcloning were performed using the DH5a strain of E. coli. All mammalian constructs were cloned into the pcDNA3.0 vector with a modified multiple cloning site. Plasmids were generated as follows. Gasdermin D gene was obtained from Addgene. A diffusible optogenetic GSDMD, referred to herein as “PhoDer” and set forth in SEQ ID NO: 33, was constructed according to the reported domains structure by ligating three fragments into the pcDNA3.0 vector in one reaction via Gibson Assembly (New England BioLabs). For each fragment, PCR was specifically designed to create appropriate complementation. The jRCaMP1b gene, encoding a sensitive red protein calcium indicator, was obtained from Addgene. Membrane targeted calcium indicator jRCaMP1b was constructed by ligating a PCR fragment of the calcium indicator into the restriction enzyme sites BamHI and EcoRI in a modified pcDNA3.0 vector carrying a 5′ fragment encoding the N-terminal Lyn kinase localization sequence.
as §1, §2
Fluctuation Analysis and Quantification. To automate the objective isolation and quantitation of calcium flares, a post-processing algorithm was developed based on principles and normalization scheme detailed in work on photochromic stochastic optical fluctuation imaging (pcSOFI) (Dedecker et al. (2012) Proc. Natl. Acad. Sci. USA 109: 10909-10914). Briefly, fluctuation caused by the flares generate high autocorrelation signals in time-averaged series and yield high contrast at locales of the greatest ion flux. To truly reflect the local flux change, it is then normalized to remove dependence on the number of biosensors reporting at the given location using a scheme detailed previously (Mo et al. (2017) Nat. Methods 14 (4): 427-434). […]

| Molecule | IL-1β release [2] | calcium response of mutants at other putative lipid-binding sites (Hela cells [3]) | other results |
| --- | --- | --- | --- |
| Cc1cc(C)c(S(=O)(=O)Nc2cccc(C(F)(F)F)c2)c(C)c1 [m-3m3FBS] | did not limit LPS-stimulated IL-1β release | – | calcium flare occurrence / calcium response with PI3K/PLC activators (Hela cells [1]): inhibited flare occurrence for a short time |
| COc1ccc2c(c1)CC[C@@H]1[C@@H]2CC[C@]2(C)[C@@H](NCCCCCCN3C(=O)C=CC3=O)CC[C@@H]12 [U73122] | enhanced | – | pixel-wise calcium fluctuations, local pore activity per locale (Hela cells [1]; pretreated vs non-pretreated cells): highest activity per locale; intracellular calcium progression after PhoDer activation (Hela cells [1]; pretreatment 10 μM): steep, cumulative rise in intracellular calcium |
| 740 Y-P | failed to elicit meaningful differences | – | calcium flare occurrence / calcium response with PI3K/PLC activators (Hela cells [1]): failed to elicit meaningful differences |
| COC[C@H]1OC(=O)c2coc3c2[C@@]1(C)C1=C(C3=O)[C@@H]2CCC(=O)[C@@]2(C)C[C@H]1OC(C)=O [wortmannin] | – | – | spatial extent flares reached (Hela cells [1]; pretreatment 10 μM, n=27): 12 μm |
| B1 | – | much-reduced calcium magnitude | – |
| B2 | – | either encumbering or abrogating the calcium response | – |
| B3 | – | either encumbering or abrogating the calcium response | – |
